Where two headings read alike, the source gives them in different places.
Experiments:
[1] = Table 1A, cited from earlier work
[2] = cited from earlier work
[3] = cited from earlier work; remark: listed apart in the source
Rat = conditions: inhalation, Table 1B; cited from earlier work
[4] = cited from earlier work; remark: listed apart in the source
[5] = Amount of No. 6 Fuel dissolved; assay type: physicochemical; conditions: for Amount of No. 6 Fuel Dissolved: Table 1B

Row | Compound | Sol. in Water ([1]; in words) | ε, Dielectric Constant ([2]; Table 1A) | Boil Pt. ([3]; Table 1A) | also measured
1 | c1ccccc1 [Benzene] | sl. sol. | 2.27 | – | –
2 | CCC(C)=O [Butanone] | sol. | 18.5 | – | –
3 | S=C=S [Carbon disulfide] | – | 2.64 | 46 °C | –
4 | ClC(Cl)(Cl)Cl [Carbon tetrachloride] | Vsl. sol. | 2.24 | 76 °C | ε, Dielectric Constant ([2]; -20° C., Table 1B): 2.238; Boil Pt. ([3]; Table 1B): 76 °C; LC50(ihl) -Rat (Rat): 4,000 ppm
5 | ClC(Cl)Cl [Chloroform] | Vsl. sol. | 4.81 | 60 °C | ε, Dielectric Constant ([2]; -20° C., Table 1B): 4.80; Boil Pt. ([3]; Table 1B): 60 °C; LC50(ihl) -Rat (Rat): 8,000 ppm
6 | C1=CCCCC1 [Cyclohexene] | sl. sol. | 2.20 | 82 °C | –
7 | C1CCCC1 [Cyclopentane] | sl. sol. | 1.965 | 49 °C | –
8 | C1=CCCC1 [Cyclopentene] | – | 2.20 | < 49 °C | –
9 | CCOC(C)=O [Ethyl acetate] | sl. sol. | 6.02 | 77 °C | Hazards, Comments ([4]; Table 1A, code numbers): 44; ε, Dielectric Constant ([2]; -20° C., Table 1B): 6.02; Amount of No. 6 Fuel Dissolved [5]: 31.71%; Boil Pt. ([3]; Table 1B): 77 °C; LC50(ihl) -Rat (Rat): 1,600 ppm
10 | C=CC(=O)OCC [Ethyl acrylate] | – | – | 99 °C | –
11 | CCOCC [Ethyl ether] | – | 4.34 | 34.6 °C | Sol. in Water [1]: 7.5 g/100 g
12 | CCSC [Ethyl methyl sulfide] | V. sl. sol. | ~5.72 | 66 °C | –
13 | CCSCC [Ethyl sulfide] | V. sl. sol. | 5.72 | 91 °C | –
14 | FC(F)(Cl)C(F)(Cl)Cl [FREON ®, 1,1,2-trichloro-1,2,2-trifluoroethane] | insol. | – | 50 °C | Amount of No. 6 Fuel Dissolved [5]: 41.01%; Boil Pt. ([3]; Table 1B): 50 °C
15 | c1ccoc1 [Furan] | sl. sol. | – | 32 °C | –
16 | C=CCCCCC [Heptene-1] | ca. sl. sol. | ca. 2.05 | 93 °C | –
17 | CCCCCC [Hexane, n-hexane] | insol. | 1.89 | – | adverse effects on absorption through the skin ([4]; nervous system): can be absorbed through the skin causing adverse effects to the nervous system, including a lack of feeling in the extremities and dizziness; solubility of No. 6 oil, in words ([5]; compared with hexane/methyl tertiary-butyl ether (80:20 v/v)): much less soluble in hexane
18 | C=CCCCC [Hexene-1] | ca. sl. sol. | ca. 2.05 | 63 °C | –
19 | ClCCl [Methyl chloride] | – | – | – | Boil Pt. ([3]; Table 1B): 40 °C
20 | CC1CCCC1 [Methyl cyclopentane] | V. sl. sol. | – | 72 °C | –
21 | CSC [Methyl sulfide] | sl. sol. | 6.2 | 37 °C | ε, Dielectric Constant ([2]; -20° C., Table 1B): 6.2; Boil Pt. ([3]; Table 1B): 37 °C
22 | COC(C)(C)C [Methyl t-Butyl ether, methyl tertiary-butyl ether] | sl. sol. | ca. 4.00 | 55 °C | ε, Dielectric Constant ([2]; -20° C., Table 1B): 4.0; Amount of No. 6 Fuel Dissolved [5]: 99.74%; Boil Pt. ([3]; Table 1B): 55 °C
23 | ClCCl [Methylene Chloride] | – | 9.08 | 40.2 °C | –
24 | C=CCCC [Pentene-1] | – | 2.10 | 37 °C | Sol. in Water [1]: 0.04%
25 | c1ccsc1 [Thiophene] | sl. sol. | 2.76 | 83 °C | –
26 | C=COC(C)=O [Vinyl acetate] | sl. sol. | – | 72 °C | –
27 | C=COC=C [Vinyl ether] | sl. sol. | 3.94 | 28 °C | –
28 | CO [methyl alcohol] | – | – | – | dielectric constant ε ([2]; alcohols): 31

Source: patent US5294553A, “Method for the gravimetric determination of oil and grease” (priority 1993, dated 1994)
